Assay results reported in ChEMBL document CHEMBL3875180, “8-Thioalkyl-adenosine derivatives inhibit Listeria monocytogenes NAD kinase through a novel binding mode” (Eur J Med Chem, 2016).

What was measured:
[1] = Competitive inhibition of Listeria monocytogenes C-terminal His6-tagged NADK1 expressed in Escherichia coli BL21(DE3) assessed as reduction in NADP production using varying levels of NAD as substrate by glucose-6-phosphate dehydrogenase coupled enzyme based spectrophotometric method
[2] = target: T1, NAD kinase (Homo sapiens, UniProt O95544); test: Inhibition of human NADK expressed in Escherichia coli BL21(DE3) assessed as reduction in NADP production using NAD as substrate by glucose-6-phosphate dehydrogenase coupled enzyme based spectrophotometric method
T1 sequence (O95544 whole entry): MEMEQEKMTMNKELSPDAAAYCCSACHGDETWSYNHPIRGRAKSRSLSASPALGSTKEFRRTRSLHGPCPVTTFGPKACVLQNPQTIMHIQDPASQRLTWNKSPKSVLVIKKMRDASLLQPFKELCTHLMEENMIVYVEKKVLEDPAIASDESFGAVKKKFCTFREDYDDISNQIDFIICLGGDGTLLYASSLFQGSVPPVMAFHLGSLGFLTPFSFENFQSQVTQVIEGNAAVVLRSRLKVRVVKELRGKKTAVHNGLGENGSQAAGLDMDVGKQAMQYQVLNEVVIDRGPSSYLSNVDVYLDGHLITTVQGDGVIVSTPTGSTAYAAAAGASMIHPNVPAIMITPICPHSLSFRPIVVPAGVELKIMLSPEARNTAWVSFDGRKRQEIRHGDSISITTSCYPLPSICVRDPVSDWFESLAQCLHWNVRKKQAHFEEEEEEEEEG

[3] = target: T2, NAD kinase (Staphylococcus aureus (strain COL), UniProt Q5HH78); test: (§1) Inhibition of Staphylococcus aureus COL NADK expressed in Escherichia coli BL21(DE3) assessed as reduction in NADP production using NAD as substrate by glucose-6-phosphate dehydrogenase coupled enzyme based spectrophotometric method; parameters: species or system Staphylococcus aureus subsp. aureus COL
T2 sequence (Q5HH78 whole entry): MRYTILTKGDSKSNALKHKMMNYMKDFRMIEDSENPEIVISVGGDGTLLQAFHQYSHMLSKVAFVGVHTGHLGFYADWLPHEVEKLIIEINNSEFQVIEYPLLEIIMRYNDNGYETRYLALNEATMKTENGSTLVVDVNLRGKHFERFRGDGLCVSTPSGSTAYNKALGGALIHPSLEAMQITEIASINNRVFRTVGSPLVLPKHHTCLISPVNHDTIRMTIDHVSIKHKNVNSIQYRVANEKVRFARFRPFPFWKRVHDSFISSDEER

[4] = tested on: Bacillus subtilis; test: Inhibition of Bacillus subtilis NADK1 expressed in Escherichia coli BL21(DE3) assessed as reduction in NADP production at 300 uM using NAD as substrate by glucose-6-phosphate dehydrogenase coupled enzyme based spectrophotometric method relative to control
[5] = Inhibition of Listeria monocytogenes C-terminal His6-tagged NADK1 P132S mutant expressed in Escherichia coli BL21(DE3) assessed as reduction in NADP production using varying levels of NAD as substrate by glucose-6-phosphate dehydrogenase coupled enzyme based spectrophotometric method
[6] = as §1, with “of Listeria monocytogenes C-terminal His6-tagged NADK1 harboring” for “of”, “NADK segment 1” for “NADK”
[7] = Inhibition of Staphylococcus aureus COL NADK S132P mutant expressed in Escherichia coli BL21(DE3) assessed as reduction in NADP production using NAD as substrate by glucose-6-phosphate dehydrogenase coupled enzyme based spectrophotometric method; parameters: species or system Staphylococcus aureus subsp. aureus COL
[8] = Inhibition of Bacillus subtilis NADK1 S132P mutant expressed in Escherichia coli BL21(DE3) assessed as reduction in NADP production using NAD as substrate by glucose-6-phosphate dehydrogenase coupled enzyme based spectrophotometric method
[9] = Inhibition of Bacillus subtilis NADK1 harboring Listeria monocytogenes NADK1 segment 1 expressed in Escherichia coli BL21(DE3) assessed as reduction in NADP production using NAD as substrate by glucose-6-phosphate dehydrogenase coupled enzyme based spectrophotometric method
[10] = Inhibition of Bacillus subtilis NADK1 harboring Listeria monocytogenes NADK1 segment 2 expressed in Escherichia coli BL21(DE3) assessed as reduction in NADP production using NAD as substrate by glucose-6-phosphate dehydrogenase coupled enzyme based spectrophotometric method
[11] = Inhibition of human NADK harboring Listeria monocytogenes NADK1 segment 1 expressed in Escherichia coli BL21(DE3) assessed as reduction in NADP production using NAD as substrate by glucose-6-phosphate dehydrogenase coupled enzyme based spectrophotometric method
[12] = Cytotoxicity against human MRC5 cells up to 1 x 10^-4M; type: toxicity, cell-based

With `[N-]=[N+]=NC[C@H]1O[C@@H](n2c(SCC(=O)NCCc3cccc(Br)c3)nc3c(N)ncnc32)[C@H](O)[C@@H]1O` the Ki [1] was 1 µM, the Ki [2] was 330 µM and the IC50 [3] was > 400 µM. It also gave an inhibition [4] of 15%, a Ki [5] of 10 µM and a Ki [6] of 2.5 µM. For the same compound, the Ki [7] was 170 µM, the Ki [8] was 100 µM and the Ki [9] was 55 µM. The Ki [10] was 30 µM, the Ki [11] was 75 µM and the Activity [12] was “Non-Toxic”.
